Laboratory results from patent US12617752B2, “Rapidly metabolized lipid compound” (Beijing Jitai Life Sciences Ltd, priority 2023, dated 2026).

Key:
[1] = Particle size and PDI of lipid nanoparticles by dynamic light scattering; assay type: physicochemical; settings: lipid nanoparticles with luciferase mRNA; ionizable lipid/cholesterol/DSPC/DMG-PEG2000 50/38.5/10/1.5 mol%
Procedure: (§1) Lipid nanoparticles were prepared by (1) dissolving and mixing ionizable lipid compounds, cholesterol, phospholipids and polyethylene glycolated lipids in ethanol at (molar percentages) 50%, 38.5%, 10% and 1.5%, respectively; (2) dissolving the mRNA active ingredient in 25 mM sodium acetate solution (pH=4.5); (3) using an automated high-throughput microfluidic system to mix the organic phase containing the lipid mixture and the aqueous phase containing the mRNA component in the flow ratio range of 1:1 to 1:4 at a mixing speed of 10 mL/min to 18 mL/min; (4) the prepared lipid nanoparticles (N/P ratio=6) were diluted with phosphate buffer solution and the nanoparticle solutions were ultrafiltered to the original preparation volume using ultrafiltration tubes (purchased from Millipore) with a cut-off molecular weight of 30 kDa; and (5) the obtained nanoparticles were filtered through a sterile 0.2 μm filter membrane and then stored in a sealed glass vial at low temperature.
(§2) The particle size and particle size dispersity index (PDI) of the prepared lipid nanoparticles were measured using a Zetasizer Pro (purchased from Malvern Instruments Ltd) and a DynaPro NanoStar (purchased from Wyatt) dynamic light scattering instrument. The degree of RNA encapsulation by lipid nanoparticles was characterized by the Encapsulation Efficiency %, which reflects the degree of binding of lipid nanoparticles to RNA fragments. This parameter was measured by the method of Quant-it™ RiboGreen RNA Assay (purchased from Invitrogen). Lipid nanoparticle samples were diluted in TE buffer (10 mM Tris-HCl, 1 mM EDTA, pH=7.5). A portion of the sample solution was removed, to which 0.5% Triton (Triton X-100) was added, and then allowed to stand at 37° C. for 30 minutes. Immediately after the addition of RIBOGREEN® reaction solution, the fluorescence values were read on a Varioskan LUX multifunctional microplate reader (purchased from Thermofisher) at 485 nm for absorption and 528 nm for emission to give the encapsulation efficiency values.

[2] = tested on: C57BL/6 mice; assay: In vivo delivery of luciferase mRNA lipid nanoparticles in mice (bioluminescence imaging); settings: intravenous, single dose 0.5 mg/kg luciferase mRNA
Procedure: The delivery effect and safety of nanoparticles encapsulated with luciferase mRNA (Trilink, L-7202) in mice were evaluated. The test mice were SPF-grade C57BL/6 mice, female, 6-8 weeks old, weighing 18-22 g, and were purchased from SPF (Beijing) Biotechnology Co., Ltd. All animals were acclimatized for more than 7 days prior to the experiment, and had free access to food and water during the experiment. The conditions include alternating light and dark for 12/12 h, the indoor temperature of 20-26° C. and the humidity of 40-70%. The mice were randomly grouped. The lipid nanoparticles encapsulated with luciferase mRNA prepared above were injected into mice by intravenous administration at a single dose of 0.5 mg/kg mRNA, and the mice were subjected to in vivo bioluminescence assay using a Small Animal In Vivo Imaging System (IVIS LUMINA III, purchased from PerkinElmer) at 6 h after administration. The assay was performed as follows: D-luciferin solution was prepared in saline at a concentration of 15 mg/mL, and each mouse was given the substrate by intraperitoneal injection. At ten minutes after administration of the substrate, the mice were anesthetized in an anesthesia chamber with isoflurane at a concentration of 2.5%. The anesthetized mice were placed in IVIS for fluorescence imaging, and data acquisition and analysis were performed on the concentrated distribution area of fluorescence.
The in vivo delivery efficiency of lipid nanoparticle carriers was expressed as the mean values of fluorescence intensity and total photon count in different animals within the same subject group, as shown in Table 5-Table 11. Higher values of fluorescence intensity and total photon count indicate higher in vivo delivery efficiency of this mRNA fragment by lipid nanoparticles. The lipid nanoparticles containing the cationic lipids of the present disclosure have good in vivo delivery efficiency.

[3] = Encapsulation efficiency of lipid nanoparticles (Quant-it RiboGreen RNA Assay); assay type: physicochemical; settings: lipid nanoparticles with luciferase mRNA
Procedure: as §1, §2

Particle size (nm) [1]	Particle-size distribution (PDI) [1]	Encapsulation efficiency (%) [3]	Structure (SMILES)	Total photon count in vivo at 6 hours after administration (Total Flux) [2]
83.05 nm	0.019	94.52%	CCCCCCCCCC(=O)OCC1(CCCCCN(CCCCO)CCCCCCCC(=O)OC(CCCCCCCCC)CCCCCCCCC)CC1 [24b]	7.06E+10
86.99 nm	0.051	95.62%	CCCCCCCCCOC(=O)CCCCC(C)(C)CCN(CCO)CCCCCCCC(=O)OC(CCCCCCCC)CCCCCCCC [25a]	1.33E+11
94.39 nm	0.15	95.59%	CCCCCCCCCC(=O)OCCCCCCCN(CCO)CCCCC(C)(C)COC(=O)OCC(CCCCCCC)CCCCCCC [25b]	1.11E+11
106.37 nm	0.050	91.18%	CCCCCCCCCOC(=O)CCCCC(C)(C)CCN(CCO)CCCCCCCC(=O)OCC(CCCCCCC)CCCCCCC [26a]	1.11E+11
136.43 nm	0.016	93.52%	CCCCCCCCCOC(=O)CCCCC(C)(C)CCN(CCO)CCCCCCCC(=O)OCCC(CCCCCC)CCCCCC [27a]	4.31E+10
91.10 nm	0.18	97.83%	CCCCCCCCCCOC(=O)OCCCCCCN(CCO)CCCCCC(C)(C)COC(=O)CC(CCCCCCC)CCCCCCC [27b]	5.59E+10
110.30 nm	0.018	93.90%	CCCCCCCCCCOC(=O)CCCC(C)(C)CCN(CCO)CCCCCCCC(=O)OCCC(CCCCCC)CCCCCC [28a]	4.30E+10
94.55 nm	0.16	96.19%	CCCCCCCCCCCOC(=O)OCCCCCN(CCO)CCCCCC(C)(C)COC(=O)CC(CCCCCCC)CCCCCCC [28b]	4.18E+10
88.59 nm	0.012	97.30%	CCCCCCCCCCOC(=O)CCC(C)(C)CCCCN(CCCCO)CCCCCCCC(=O)OC(CCCCCCCCC)CCCCCCCCC [29a]	5.46E+10
112.43 nm	0.10	96.28%	CCCCCCCCCOC(=O)OCCCCCCCN(CCO)CCCCCC(C)(C)COC(=O)CC(CCCCCCC)CCCCCCC [29b]	3.52E+10
115.83 nm	0.08	95.02%	CCCCCCCCCCOC(=O)OCCCCCCN(CCCCO)CCCCCC(C)(C)COC(=O)CC(CCCCCCC)CCCCCCC [30b]	4.03E+10
118.73 nm	0.07	95.73%	CCCCCCCCCCCOC(=O)OCCCCCN(CCCCO)CCCCCC(C)(C)COC(=O)CC(CCCCCCC)CCCCCCC [31b]	1.87E+10
129.00 nm	0.10	83.51%	CCCCCCCCCOC(=O)OCCCCCCN(CCCO)CCCCCCC(C)(C)C(=O)OC(CCCCCCCC)CCCCCCCC [32a]	1.24E+10
116.50 nm	0.16	95.31%	CCCCCCCCCOC(=O)OCCCCCCCN(CCCCO)CCCCCC(C)(C)COC(=O)CC(CCCCCCC)CCCCCCC [32b]	3.52E+10
85.80 nm	0.15	94.85%	CCCCCCCCCC(=O)OCC(C)(C)CCCCCN(CCO)CCCCCCOC(=O)OCC(CCCCCCCC)CCCCCCCC [33b]	8.23E+10
85.20 nm	0.19	97.61%	CCCCCCCCCC(=O)OCC1(CCCCCN(CCO)CCCCCCOC(=O)OCC(CCCCCCCC)CCCCCCCC)CC1 [34b]	2.78E+10
100.40 nm	0.21	96.35%	CCCCCCCCCC(=O)OCC(C)(C)CCCCCN(CCCCO)CCCCCCOC(=O)OCC(CCCCCCCC)CCCCCCCC [35b]	3.77E+10
83.72 nm	0.16	95.15%	CCCCCCCC(CCCCCCC)CCOC(=O)OCCCCCCN(CCO)CCCCCC(C)(C)COC(=O)CCC(CCCCCC)CCCCCC [37b]	3.72E+10

Structure (SMILES)	Particle size (nm) [1]	Particle-size distribution (PDI) [1]	Encapsulation efficiency (%) [3]	Total photon count in vivo at 6 hours after administration (Total Flux) [2]
CCCCCCCCCCOC(=O)OCCCCCN(CCO)CCCCCCC(C)(C)C(=O)OC(CCCCCCCC)CCCCCCCC [31a]	115.56 nm	0.11	86.08%	7.04E+10
CCCCCCCCCOC(=O)OCCCCCCN(CCO)CCCCCCC(C)(C)C(=O)OCC(CCCCCCC)CCCCCCC [33a]	111.60 nm	0.17	86.98%	1.09E+11
CCCCCCCCCOC(=O)OCCCCCCN(CCO)CCCCCCC(C)(C)C(=O)OCCC(CCCCCC)CCCCCC [34a]	116.67 nm	0.12	95.73%	3.14E+10
CCCCCCCCCOC(=O)OCCCCCCN(CCO)CCCCCCC(C)(C)C(=O)OCCCC(CCCCC)CCCCC [35a]	126.63 nm	0.22	95.00%	3.01E+10
CCCCCCCCCCCOC(=O)OCCCCN(CCO)CCCCCCC(C)(C)C(=O)OC(CCCCCCCC)CCCCCCCC [36a]	104.80 nm	0.15	92.41%	2.51E+10
CCCCCCCCCC(=O)OCC1(CCCCCN(CCCCO)CCCCCCOC(=O)OCC(CCCCCCCC)CCCCCCCC)CC1 [36b]	112.50 nm	0.19	96.10%	3.84E+10
CCCCCCCCCCCOC(=O)OCCCCN(CCO)CCCCCCC(C)(C)C(=O)OCC(CCCCCCC)CCCCCCC [37a]	110.67 nm	0.15	92.14%	3.54E+10
CCCCCCCCCCCOC(=O)OCCCCN(CCO)CCCCCCC(C)(C)C(=O)OCCC(CCCCCC)CCCCCC [38a]	114.03 nm	0.13	94.51%	1.39E+10
